doi:10.1101/2025.07.21.666047v1 (biorxiv, 2025)

How the values were obtained:
[1] = target: CD28:B7.1 (immobilized CD28 and biotinylated B7.1) (Homo sapiens, UniProt P10747); assay: competitive ELISA, chemiluminescent; format: binding
[2] = target: recombinant human CD28 protein (extracellular domain, His-tagged) (Homo sapiens, UniProt P10747); assay: spectral shift; format: binding
Sequence of recombinant human CD28 protein (extracellular domain, His-tagged) (P10747 19-152): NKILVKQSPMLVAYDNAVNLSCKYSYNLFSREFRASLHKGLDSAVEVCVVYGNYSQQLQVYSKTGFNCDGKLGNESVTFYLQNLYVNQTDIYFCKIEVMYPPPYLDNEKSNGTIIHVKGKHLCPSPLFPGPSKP

Sequence of CD28:B7.1 (immobilized CD28 and biotinylated B7.1) (P10747 19-152 limits assumed): as the sequence (P10747 19-152) above

| IC50 [1] | Kd [2] | Compound |
| --- | --- | --- |
| 32.9 ± 5.74 µM | 43.3 ± 16.4 µM | NC(=O)c1ccc(N2CCN(C(=O)c3ncc4n3CCCC4)CC2)cc1 [Z2770993038] |
| – | 49.5 ± 15.3 µM | COc1ccc(C2CC(C)N(CC(=O)NCC(F)(F)F)C2)cc1 (centres unmarked) [Z3889890124] |
| 56.3 ± 11.2 µM | 45.8 ± 12.1 µM | CC(C)OC1CCCN(C(=O)c2ccc(-c3nn[nH]n3)s2)C1 (centres unmarked) [Z4390463985] |
